Laboratory results reported in patent publication US11542261B2, “Substituted Imidazo[1,2-a]-pyridines as IRAK 1/4 and FLT3 inhibitors” (CHILDREN'S HOSPITAL MEDICAL CENTER, priority 2016, dated 2023).

Tests used:
IRAK1 [1] = target: T1, IRAK1 (Homo sapiens (Human), UniProt P51617); assay: HotSpot kinase IC50 assay; format: biochemical; settings: 10 μM ATP
IRAK4 = IRAK4 (Homo sapiens (Human), UniProt Q9NWZ3); assay: HotSpot kinase IC50 assay; format: biochemical; settings: 10 μM ATP
IRAK4 phosphorylation [2] = assay: Immunoblot of P-IRAK4 in FLT3-ITD AML cells; format: cell-based, human; settings: 50 nM
FLT3 phosphorylation = assay: Immunoblot of phosphorylated FLT3 in MV4;11 cells; format: cell-based, human; settings: 50 nM, 24 hours
MLL-AF9 NRas cells = assay: NRAS IC50 (MLL-AF9 NRas cells); format: cell-based; settings: Table 10
MLL-AF9/FLT3-ITD cells = format: cell-based; settings: Homo sapiens, MLL-AF9, Table 10
[3] = Rat microsomal stability (RLM); format: in vitro ADME; settings: Table 10
THP-1 cells [4] = assay: Inhibitory activity against THP-1 cells; format: cell-based; settings: THP-1 cells (FLT3 wild type AML); data not shown
THP-1 cells [5] = assay: Synergy of I-24/1481 with venetoclax in THP-1 cells (MTS); format: cell-based; settings: combined with an IC50 concentration of I-24/1481
Procedure: Data were analyzed by Prism v 8. […] FIG. 14C depicts the relevant heat maps; data in the upper heat map indicates the Bliss Scores, and the lower heat map indicates the individual data points for the various dose response curves. Methods: Day 0: Cell Line Plating in growth media recommended by ATCC using Tecan Fluent in 96 well plate (Eppendorf 0030730011); Day 1: Drug Addition. Venetoclax obtained from Selleckchem (S8048); Day 1→4: Incubate with Drug for 72 Hrs at 37 C, 5% CO2; Day 5: Add 20% original volume MTS (Promega G5440) and incubate for 4 Hrs; Add 25% original volume 10% SDS (Invitrogen 24730-020) to lyse cells and stop conversion of MTS to formazan. Read out is colorimetric at 490 nm using a BioTek Synergy Neo Plate Reader.

Kasumi-1 cells = assay: Synergy of I-24/1481 with venetoclax in Kasumi-1 cells (MTS); format: cell-based
LYN = LYN (Homo sapiens (Human), UniProt P07948); assay: KiNativ in situ kinase profiling in MV4:11 cell lysates; format: biochemical
Procedure: (§1) FIG. 18A depicts the labeling site key. FIG. 18B depicts estimated IC50 values. FIG. 18C depicts the full IC50 list for the various kinases. This is an in situ kinase profiling assay; details and methodology are available at www kinativ com. The assay was performed in lysates of MV-4-11 cells which were pretreated for 15 minutes with the inhibitor before the ATP probe was added.
(§2) The KiNativ® assay is an in situ kinase profiling assay; details and methodology are available at www kinativ com. This assay uses the form of the enzyme that is found in actual cells. The assay is run either in cell lysates or in whole cells, with the drug of interest added either to the cell lysates (i.e. cells that have been popped open) or to the outside of the cell in a whole cell assay prior to making the cell lysates. The whole cell assay is optimal because the drug must pass through the cell membrane to get to the cytoplasm where the kinase resides if the kinase is a cytosolic kinase, as is the case for IRAK, or the location of the kinase domain for the FLT3 receptor kinase domain. In the case of FIG. 18, the KiNativ assay was run on cell lysates from the MV4:11 cells. The MV4:11 cells are a FLT3-ITD positive cell line.
(§3) FLT3 is not captured by the KiNativ technology. The KiNativ assay is done in the actual cellular milieu, where the kinase domains are in their more natural states and subject to more native regulatory elements (e.g. other protein domains within the kinase itself that might not be present in the Reaction Biology assay, and which might otherwise obscure access to the active site by our ligand).

GAK = GAK (Homo sapiens (Human), UniProt O14976); assay: as above; format: biochemical
Procedure: as §1, §2, §3

PCTAIRE2 = PCTAIRE2 (Homo sapiens (Human), UniProt Q00537); assay: as above; format: biochemical
Procedure: as §1, §2, §3

TNIK = TNIK (Homo sapiens (Human), UniProt Q9UKE5); assay: as above; format: biochemical
Procedure: as §1, §2, §3

ABL = ABL (Homo sapiens (Human), UniProt P00519); assay: as above; format: biochemical
Procedure: as §1, §2, §3

CDK7 = CDK7 (Homo sapiens (Human), UniProt P50613); assay: as above; format: biochemical
Procedure: as §1, §2, §3

IRAK1 [6] = target: T1, IRAK1; assay: as above; format: biochemical
Procedure: as §1, §2, §3

PCTAIRE1 = PCTAIRE1 (Homo sapiens (Human), UniProt Q00536); assay: as above; format: biochemical
Procedure: as §1, §2, §3

HGK = HGK (Homo sapiens (Human), UniProt O95819); assay: as above; format: biochemical
Procedure: as §1, §2, §3

PCTAIRE3 = PCTAIRE3 (Homo sapiens (Human), UniProt Q07002); assay: as above; format: biochemical
Procedure: as §1, §2, §3

MINK = MINK (Homo sapiens (Human), UniProt Q8N4C8); assay: as above; format: biochemical
Procedure: as §1, §2, §3

MDSL cells = assay: MDSL cell growth, Cell-titer glow, 72 hours; format: cell-based, human
Procedure: In a 96-well culture plate (Corning Inc. Costar), 25000 cells were plated in 200 μL media per well. In triplicate, 2 μL of the indicated inhibitor (100× in DMSO) was added to each well and cells treated with 2 μL DMSO alone was used as the control. Treated cells were incubated at 37° C. for 72 hours. In a white 96-well assay plate (Corning Inc. Costar), 100 μL of the treated cells were transferred and brought to room temperature. An equal volume of CellTiter-Glo Reagent at room temperature was added to the cells and the plate was rocked for 2 minutes, followed by 10 minutes of rest. Analysis was performed using GloMax 96 microplate Luminometer (Promega) with GloMax Software.
FIG. 10—Methods: (FIG. 10A) Colony formation of MDSL cells was determined in methylcellulose supplemented with 1 μM or 10 μM of the indicated compounds. Colony formation was determined after 10 days.

IRAK4 phosphorylation [7] = assay: Immunoblot of phosphorylated IRAK4 in MDSL cells; format: cell-based, human; settings: 24 hours

**Q.** With `CC(C)(C)c1cc(NC(=O)Nc2ccc(-c3cn4c(n3)sc3cc(OCCN5CCOCC5)ccc34)cc2)no1` [quizartinib] as the compound, how does the IC50 (IRAK1 [1]) read?
**A.** The IC50 was “inactive”.

**Q.** What about the IC50 (IRAK4) of the same compound?
**A.** Its IC50 is “inactive”.

**Q.** With `COc1cc2ncc(-c3cccc(NC4CCNC4)n3)n2cc1-c1cn[nH]c1` (stereo not shown) [Compound I-20, 6-(7-methoxy-6-(1H-pyrazol-4-yl)imidazo[1,2-a]pyridin-3-yl)-N-(pyrrolidin-3-yl)pyridin-2-amine] as the compound, how does the “compensatory phosphorylation of IRAK4” value (IRAK4 phosphorylation [2]) read?
**A.** Its value is “did not result in compensatory phosphorylation of IRAK4”.

**Q.** What about the FLT3 phosphorylation (FLT3 phosphorylation) of the same compound?
**A.** Its FLT3 phosphorylation is “inhibited FLT3 phosphorylation comparably to AC220”.

**Q.** And the IC50 (MLL-AF9 NRas cells)?
**A.** Its IC50 is 33200 nM.

**Q.** And the IC50 (MLL-AF9/FLT3-ITD cells)?
**A.** Its IC50 is 40 nM.

**Q.** With `COc1cc2ncc(-c3cccc(NC4CCNC4)n3)n2cc1OC` (stereo not shown) [Compound I-36] as the compound, how does the IC50 (MLL-AF9 NRas cells) read?
**A.** Its IC50 is 4430 nM.

**Q.** What about the IC50 (MLL-AF9/FLT3-ITD cells) of the same compound?
**A.** Its IC50 is 17 nM.

**Q.** And the Stability [3]?
**A.** Its Stability is >30.0 min.

**Q.** For `COc1cc2ncc(-c3cccc(NC4CCNC4)n3)n2cc1-c1nnn[nH]1` (stereo not shown) [Compound I-38], which IC50 (MLL-AF9 NRas cells) is on record?
**A.** The IC50 was 2 nM.

**Q.** And the IC50 (MLL-AF9/FLT3-ITD cells)?
**A.** The IC50 was 6260 nM.

**Q.** What about the Stability [3] of the same compound?
**A.** The Stability was >30.0 min.

**Q.** For `COc1cc2ncc(-c3cccc(NC4CCNC4)n3)n2cc1C#N` (stereo not shown) [Compound I-39], which IC50 (MLL-AF9 NRas cells) is on record?
**A.** Its IC50 is 5580 nM.

**Q.** And the IC50 (MLL-AF9/FLT3-ITD cells)?
**A.** Its IC50 is 33 nM.

**Q.** And the Stability [3]?
**A.** Its Stability is 8.8 min.

**Q.** Which results are given for `Cn1cc(-c2ccc3ncc(-c4cccc(NC5CNC5)n4)n3c2)cn1` [Compound I-46]?
**A.** IC50 (MLL-AF9 NRas cells): 16600 nM; IC50 (MLL-AF9/FLT3-ITD cells): 213 nM; Stability [3]: >30.0 min

**Q.** Which results are given for `Clc1ccc2ncc(-c3cccc(NC4CCNCC4)n3)n2c1` [Compound I-2, 6-(6-chloroimidazo[1,2-a]pyridin-3-yl)-N-(piperidin-4-yl)pyridin-2-amine]?
**A.** concentration without any inhibitory activity (THP-1 cells [4]): > 10 µM; Stability [3]: >30.0 min

**Q.** What does the source list for `CC1(C)CCC(CN2CCN(c3ccc(C(=O)NS(=O)(=O)c4ccc(NCC5CCOCC5)c([N+](=O)[O-])c4)c(Oc4cnc5[nH]ccc5c4)c3)CC2)=C(c2ccc(Cl)cc2)C1` [Venetoclax, venetoclax]?
**A.** shift of venetoclax IC50 (THP-1 cells [5]): 15,000 times; IC50 (Kasumi-1 cells; Homo sapiens, denominator of the dose ratio, read-out: concentration giving the IC50 response when administered alone): 3600 nM; fold shift of Venetoclax IC50 (Kasumi-1 cells; combined with a minimally active concentration of I-24/1481): ~15 fold; fold shift of Venetoclax IC50 (MLL-AF9 FLT3-ITD cells; combined with 0.2 nM 1481): 50 fold; IC50 (MLL-AF9 FLT3-ITD cells; read-out: IC50 alone, single agent): 3160 nM

**Q.** For `COc1cc2ncc(-c3cccc(NC4CCNC4)n3)n2cc1-c1cnn(C)c1` (stereo not shown) [Compound I-24, 6-(7-methoxy-6-(1-methyl-1H-pyrazol-4-yl)imidazo[1,2-a]pyridin-3-yl)-N-(pyrrolidin-3-yl)pyridin-2-amine], which “concentration without any inhibitory activity” value (THP-1 cells [4]) is on record?
**A.** The value was > 10 µM.

**Q.** What about the IC50 (LYN) of the same compound?
**A.** The IC50 was < 250 nM.

**Q.** And the IC50 (GAK)?
**A.** Its IC50 is < 250 nM.

**Q.** And the IC50 (PCTAIRE2)?
**A.** Its IC50 is < 250 nM.

**Q.** And the IC50 (TNIK)?
**A.** Its IC50 is < 250 nM.

**Q.** And the IC50 (ABL)?
**A.** The IC50 was < 250 nM.

**Q.** What about the IC50 (CDK7) of the same compound?
**A.** Its IC50 is < 250 nM.

**Q.** What about the IC50 (IRAK1 [6]) of the same compound?
**A.** Its IC50 is < 250 nM.

**Q.** And the IC50 (PCTAIRE1)?
**A.** Its IC50 is < 250 nM.

**Q.** And the IC50 (HGK)?
**A.** The IC50 was < 250 nM.

**Q.** And the IC50 (PCTAIRE3)?
**A.** Its IC50 is < 250 nM.

**Q.** What about the IC50 (MINK) of the same compound?
**A.** The IC50 was < 250 nM.

**Q.** What about the MDSL growth (MDSL cells) of the same compound?
**A.** Its MDSL growth is “increased ability to inhibit MDSL growth compared to IRAK-Inh”.

**Q.** What about the FLT3 phosphorylation (FLT3 phosphorylation) of the same compound?
**A.** Its FLT3 phosphorylation is “inhibited FLT3 phosphorylation comparably to AC220”.

**Q.** What about the IRAK4 phosphorylation (IRAK4 phosphorylation [7]) of the same compound?
**A.** Its IRAK4 phosphorylation is “effectively inhibited pIRAK4”.
